Reference: patent US20130226069A1, “ACNE THERAPEUTIC AGENT AND SEBUM SECERNENT INHIBITOR WHICH COMPRISE INDOLE-3-ALKYLCARBO XYLICACID, AND KITS FOR PHOTODYNAMIC THERAPY CONTAINING THE SAME” (WELSKIN CO., LTD., priority 2007, published 2013)

Key:
P. acnes 706486 = test: Bacteriocidal effect of IAA with or without IPL irradiation on P. acnes, colony count; format: cell-based, Propionibacterium acnes
Protocol: (§1) P. acnes 706486 and S. aureus W-1-14 was used for this experiment. Mueller Hinton II broth (Becton, Dickinson Co., Sparks, U.S.A) was used for culture of bacteria. The cultured S. aureus colony was dissolved with phosphate buffered saline (PBS, Invitrogen Co., NY, U.S.A) such that the McFarland turbidity became 0.5. The resultant bacterial solution was at the concentration of […]. Then, the bacterial solution was further diluted to the concentration of 1×10^8/ml and 10 μl of the bacterial solution was spread onto the Mueller Hinton II agar (Becton, Dickinson Co., Sparks, U.S.A) plate followed by drying in clean bench for 30 min. IAA was dissolved with Dulbecco's phosphate buffered saline (DPBS, Invitrogen Co., NY, U.S.A) to obtain samples of IAA concentration of 20 mM, 10 mM, 5 mM, 1 mM and 0.5 mM. Three minutes after adding 4 ml of 0 mM, 0.5 mM, 1 mM, 5 mM, 10 mM, and 20 mM IAA solution to 6 bacterial solution inoculated mediums respectively, Intermittent Pulse Laser (IPL, Ellipse Flex DDD, Denmark) was irradiated to the mediums. 10 J/cm^2 of the IPL of wavelength of 400 nm to 720 nm was irradiated to the mediums, using an applicator equipped with a filter. One minute after IPL irradiation, the mediums were washed for two times with PBS and incubated at 37° C. for 24 hrs and then the number of colonies was counted respectively. Four minutes after adding 4 ml of 0 mM, 0.5 mM, 1 mM, 5 mM, 10 mM, and 20 mM IAA solution to another 6 bacterial solution inoculated mediums, the mediums were treated as the above-mentioned process except that IPL was not irradiated, and then the number of colonies was counted respectively. The above-mentioned process was repeated except that P. acnes inoculated mediums were employed in place of S. aureus inoculated mediums and cultured in an anaerobic chamber substituted with nitrogen, and then the number of colonies was counted.

S. aureus W-1-14 = test: Bacteriocidal effect of IAA with or without IPL irradiation on S. aureus, colony count; format: cell-based, Staphylococcus aureus
Protocol: as §1

[1] = Improvement of acne by IAA and light, half-face, count of inflammatory lesions; format: in vivo
Description: IAA was applied to only half of face and 20 J of IPL was irradiated. The face was irradiated 3 times at 2 weeks intervals and the number of inflammatory lesions was counted.

[2] = Sebum secretion inhibition by IAA and IPL, half-face; format: in vivo
Protocol: As described in Example 2, IAA was applied to only half of face and 20 J of IPL was irradiated. The face was irradiated 3 times at 2 weeks intervals and the amount of sebum secretion was measured.

[3] = IAA with IPL, irradiated 3 times at 2 weeks intervals

## O=C(O)Cc1c[nH]c2ccccc12 [IAA, Indole-3-acetic acid]
P. acnes 706486; 5 mM or more IAA solution, IPL not irradiated
  number of colonies: 68 % of control group
P. acnes 706486; 20 mM IAA solution, with IPL irradiation
  growth of bacteria: no growth of bacteria
P. acnes 706486; IAA with IPL irradiation, 10 J/cm^2, 400 nm to 720 nm
  inhibitory effects on P. acnes proliferation: dramatic inhibitory effects
S. aureus W-1-14; 20 mM IAA solution, without IPL irradiation
  number of colonies: 60 % of control group
S. aureus W-1-14; IPL irradiation and 0.5 mM IAA solution
  number of colonies: 63 % of control group
S. aureus W-1-14; IPL irradiation and 1 mM IAA solution
  number of colonies: 32 % of control group
[1]; IAA + IPL 20 J, after 2 weeks, n = 14, baseline T0 16.21 ± 9.18
  Number of inflammatory lesion (mean ± SD), T1: 15.50 ± 9.03
[1]; IAA + IPL 20 J, after 4 weeks, n = 14, baseline T0 16.21 ± 9.18
  Number of inflammatory lesion (mean ± SD), T2: 13.93 ± 8.54
[1]; IAA + IPL 20 J, after 6 weeks, n = 14, baseline T0 16.21 ± 9.18
  Number of inflammatory lesion (mean ± SD), T3: 13.93 ± 8.30
[1]; IAA + IPL, 2 weeks versus baseline, p 0.246
  Change in number of inflammatory lesion T1-T0 (mean ± SD): −0.71 ± 2.20
[1]; IAA + IPL, 4 weeks versus baseline, p 0.024
  Change in number of inflammatory lesion T2-T0 (mean ± SD): −2.29 ± 3.36
[1]; IAA + IPL, 6 weeks versus baseline, p 0.026
  Change in number of inflammatory lesion T3-T0 (mean ± SD): −2.29 ± 3.41
[1]; [3]
  improvement of acne (number of inflammatory lesions): significant improvement
[2]; IAA + IPL 20 J, after 2 weeks, n = 14, baseline T0 99.64 ± 56.93
  sebum secretion (mean ± SD), T1: 114.71 ± 63.83
[2]; IAA + IPL 20 J, after 4 weeks, n = 14, baseline T0 99.64 ± 56.93
  sebum secretion (mean ± SD), T2: 70.43 ± 42.80
[2]; IAA + IPL 20 J, after 6 weeks, n = 14, baseline T0 99.64 ± 56.93
  sebum secretion (mean ± SD), T3: 65.79 ± 27.90
[2]; IAA + IPL, 2 weeks versus baseline, p 0.433
  Change of sebum secretion T1-T0 (mean ± SD): 15.07 ± 69.70
[2]; IAA + IPL, 4 weeks versus baseline, p 0.032
  Change of sebum secretion T2-T0 (mean ± SD): −29.21 ± 45.67
[2]; IAA + IPL, 6 weeks versus baseline, p 0.015
  Change of sebum secretion T3-T0 (mean ± SD): −33.86 ± 44.98
[2]; [3]
  inhibitory effect of sebum secretion: significant inhibitory effect of sebum secretion
